Experimental data taken from patent US20040157268A1, “Conformational assays to detect binding to membrane spanning, signal-transducing proteins” (priority 2001, published 2004).

How the values were obtained:
FM-β2AR [1] = assay: Quenching of FM-β2AR fluorescence (KI, oxyl-NHS, nitroxide fatty acids), Stern-Volmer; format: biochemical, human; settings: ISO-induced change in fluorescence with quencher vs without; 250 mM KI vs 250 mM KCl; Oxyl-NHS bound to K224 in TM5; ALP reversal as measure; n=3
FM-β2AR [2] = target: T1, FM-β2AR (Homo sapiens, UniProt P07550); assay: Fluorescence intensity of FM-β2AR (fluorescein maleimide at Cys265), time course; settings: ligand added to FM-β2AR, in words
T1 sequence (P07550 whole entry, the tested form may be a part): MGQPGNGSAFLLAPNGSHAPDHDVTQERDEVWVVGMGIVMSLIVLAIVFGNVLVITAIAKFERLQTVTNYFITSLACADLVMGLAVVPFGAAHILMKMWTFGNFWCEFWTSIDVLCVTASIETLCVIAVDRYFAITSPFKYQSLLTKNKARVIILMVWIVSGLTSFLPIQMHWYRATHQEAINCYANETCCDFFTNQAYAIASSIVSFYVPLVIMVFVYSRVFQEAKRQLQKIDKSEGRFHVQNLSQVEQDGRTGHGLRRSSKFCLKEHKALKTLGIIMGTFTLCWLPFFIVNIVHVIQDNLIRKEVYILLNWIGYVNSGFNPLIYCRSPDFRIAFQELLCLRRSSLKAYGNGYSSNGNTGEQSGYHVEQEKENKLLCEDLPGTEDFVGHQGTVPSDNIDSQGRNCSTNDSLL

FM-β2AR [3] = target: T1, FM-β2AR; assay: Fluorescence lifetime analysis of FM-β2AR (frequency domain); format: biochemical; design: made in house
From the text: Fluorescence lifetime analysis of fluorescein labeled β2AR. […] The instrument covered a wide frequency range (4-5000 MHz), which allowed detection of lifetimes ranging from several nanoseconds to a few picoseconds. Samples were placed in a 10-mm path-length cuvette. The excitation was provided by the frequency-doubled output of a cavity-dumped pyridine-2 dye laser tuned at 370 nm synchronously pumped by a mode-locked argon ion laser. Sample emission was filtered through Corning 3-72 and 4-96 filters.
The governing equations for the time-resolved intensity decay data were assumed to be a sum of discrete exponentials as in I(t)=IoΣiαie^t/τ^i, where I(t) is the intensity decay, αi is the amplitude (pre-exponential factor) and τi is the fluorescence lifetime of the i-th discrete component; or a sum of Gaussian distribution functions as in the equation I(t)=IoΣiαiτe^t/τ and [formula]
In the frequency domain, the measured quantities at each frequency ω, are the phase shift (Øω) and demodulation factor (mω) of the emitted light versus the reference light.
Fractional intensity, amplitude, and lifetime parameters were recovered by a non-linear least squares procedure using the software developed at the Center for Fluorescence Spectroscopy. The measured data were compared with calculated values (Øcω,mcω) and the goodness of fit was characterized by [formula]
where ν is the number of degrees of freedom and δØ and δm are the uncertainties in the measured phase and modulation values, respectively. The sum extends over all frequencies (ω).

FM-β2AR [4] = target: T1, FM-β2AR; assay: Quenching of FM-β2AR fluorescence (KI, oxyl-NHS, nitroxide fatty acids), Stern-Volmer; format: biochemical; design: made in house; settings: for quenching constant Ksv (nitroxide fatty acids): total lipid constant with stearic acid, n=3
[5] = Gaussian lifetime distribution, long component
[6] = Gaussian lifetime distribution, short component
[7] = fit to discrete exponential functions

[I-].[K+] [KI, potassium iodide]
% of control ISO response (FM-β2AR [1]): 55.4±8.3%

CC(CCc1ccc(O)cc1)NCCc1ccc(O)c(O)c1 (stereo not shown) [DOB, dobutamine]
change in FM-β2AR fluorescence (FM-β2AR [2]): progressively smaller changes | FWHMLONG (FM-β2AR [3]; [5]): 0.4±0.4 | τLONG (FM-β2AR [3]; [5]): 4.38±0.01 nsec | FWHMSHORT (FM-β2AR [3]; [6]): 0.9±0.6 | τSHORT (FM-β2AR [3]; [6]): 1.78±0.01 nsec | τ1 (nsec) (FM-β2AR [3]; [7]): 4.36 ± 0.01 nsec | τ2 (nsec) (FM-β2AR [3]; [7]): 1.68 ± 0.3 nsec | α2 (FM-β2AR [3]; fit to discrete exponential functions, fractional contribution of τ2): 0.07 ± 0.01

CNC[C@H](O)c1ccc(O)c(O)c1 [epinephrine]
change in FM-β2AR fluorescence (FM-β2AR [2]): progressively smaller changes

CCCCCCCCCCCCCC1(CCCC(=O)O)OCC(C)(C)N1[O] (stereo not shown) [5-DOX, 5-doxyl stearate]
effect on magnitude of the agonist-induced change in fluorescence (FM-β2AR [4]; 100 μM 5-DOX): no significant effect | quenching of baseline fluorescence (FM-β2AR [4]; 100 μM 5-DOX): 12% | quenching constant Ksv (nitroxide fatty acids) (FM-β2AR [4]): 1.4 ± 0.2 mM⁻¹

CCCCCCCCCCCCCCCC[N+](C)(C)C1CC(C)(C)N([O])C(C)(C)C1.[I-] [CAT-16]
effect on magnitude of the agonist-induced fluorescence change (FM-β2AR [4]; 50 μM CAT-16): more than two fold | quenching of baseline fluorescence (FM-β2AR [4]; 50 μM CAT-16): ~12% | quenching constant Ksv (nitroxide fatty acids) (FM-β2AR [4]): 2.4 ± 0.1 mM⁻¹
